Results as given in the NIST ThermoML archive (doi:10.1016/j.tca.2011.08.013).
± gives the expanded uncertainty stated by the source.

What was measured:
[1] = Liquid; for viscosity: Capillary tube (Ostwald / Ubbelohde) method; for speed of sound: Linear variable-path acoustic interferometer; for mass density: Pycnometric method
[2] = xn = mol fraction of the nth substance listed; details: 101 kPa, Liquid; for viscosity: Capillary tube (Ostwald / Ubbelohde) method; for speed of sound: Linear variable-path acoustic interferometer; for mass density: Pycnometric method
[3] = mn = molality of the nth substance listed, in mol/kg; details: 101 kPa, Liquid; for viscosity: Capillary tube (Ostwald / Ubbelohde) method; for speed of sound: Linear variable-path acoustic interferometer; for mass density: Pycnometric method

C[S+](C)[O-] [dimethyl sulfoxide]
[1], 101.33 kPa
Details	mass density [kg/m3]	speed of sound [m/s]	viscosity [mPa·s]
308.15 K	1085.9 ± 0.6	1457.9 ± 1.7	1.655 ± 0.011
318.15 K	1075.6 ± 0.7	1423.4 ± 1.7	1.392 ± 0.009

C[S+](C)[O-] [dimethyl sulfoxide] + O
[2]
Details	mass density [kg/m3]	speed of sound [m/s]	viscosity [mPa·s]
303.15 K, x1 = 0.0121	1002 ± 1.3	1534.6 ± 2.8	0.9 ± 0.012
303.15 K, x1 = 0.0255	1008 ± 1.3	1556.6 ± 2.8	0.979 ± 0.013
303.15 K, x1 = 0.0424	1015.3 ± 1.3	1580 ± 2.8	1.089 ± 0.014
303.15 K, x1 = 0.0583	1021.4 ± 1.3	1602.7 ± 2.8	1.224 ± 0.015
308.15 K, x1 = 0.0121	1000.3 ± 1.3	1541.3 ± 2.8	0.805 ± 0.011
308.15 K, x1 = 0.0255	1006.4 ± 1.3	1561.7 ± 2.8	0.888 ± 0.012
308.15 K, x1 = 0.0424	1013.6 ± 1.3	1583.1 ± 2.8	0.988 ± 0.013
308.15 K, x1 = 0.0583	1019.3 ± 1.3	1603.5 ± 2.8	1.102 ± 0.014
313.15 K, x1 = 0.0121	998.5 ± 1.3	1546.2 ± 2.8	0.729 ± 0.01
313.15 K, x1 = 0.0255	1004.4 ± 1.3	1566 ± 2.8	0.806 ± 0.011
313.15 K, x1 = 0.0424	1011.4 ± 1.3	1586.1 ± 2.8	0.887 ± 0.012
313.15 K, x1 = 0.0583	1017.6 ± 1.3	1604.9 ± 2.8	1.002 ± 0.013
318.15 K, x1 = 0.0121	996.2 ± 1.3	1552.4 ± 2.8	0.667 ± 0.009
318.15 K, x1 = 0.0255	1002.3 ± 1.3	1569.7 ± 2.8	0.735 ± 0.01
318.15 K, x1 = 0.0424	1009.3 ± 1.3	1587.2 ± 2.8	0.808 ± 0.011
318.15 K, x1 = 0.0583	1015.3 ± 1.3	1603.3 ± 2.8	0.903 ± 0.012

[F-].[K+] [potassium fluoride] + O
[3]
Details	mass density [kg/m3]	speed of sound [m/s]	viscosity [mPa·s]
303.15 K, m1 = 0.05	998.2 ± 1.3	1515.5 ± 2.7	0.805 ± 0.011
303.15 K, m1 = 0.1	1000.4 ± 1.3	1518.9 ± 2.8	0.811 ± 0.011
303.15 K, m1 = 0.15	1002.6 ± 1.3	1522.1 ± 2.8	0.819 ± 0.011
303.15 K, m1 = 0.2	1004.7 ± 1.3	1525.8 ± 2.8	0.827 ± 0.011
308.15 K, m1 = 0.05	996.6 ± 1.3	1524 ± 2.8	0.726 ± 0.01
308.15 K, m1 = 0.1	998.8 ± 1.3	1526.9 ± 2.8	0.734 ± 0.01
308.15 K, m1 = 0.15	1001 ± 1.3	1530.5 ± 2.8	0.741 ± 0.01
308.15 K, m1 = 0.2	1003.2 ± 1.3	1534 ± 2.8	0.745 ± 0.01
313.15 K, m1 = 0.05	994.7 ± 1.3	1531.4 ± 2.8	0.66 ± 0.009
313.15 K, m1 = 0.1	997 ± 1.3	1536.1 ± 2.8	0.668 ± 0.009
313.15 K, m1 = 0.15	999.1 ± 1.3	1538.6 ± 2.8	0.672 ± 0.009
313.15 K, m1 = 0.2	1001.2 ± 1.3	1542.4 ± 2.8	0.679 ± 0.009
318.15 K, m1 = 0.05	992.7 ± 1.3	1538.6 ± 2.8	0.604 ± 0.009
318.15 K, m1 = 0.1	994.8 ± 1.3	1543.4 ± 2.8	0.612 ± 0.009
318.15 K, m1 = 0.15	997 ± 1.3	1546.2 ± 2.8	0.615 ± 0.009
318.15 K, m1 = 0.2	999.2 ± 1.3	1549.4 ± 2.8	0.622 ± 0.009

O [water]
[1], 101 kPa
Details	speed of sound [m/s]	viscosity [mPa·s]
303.15 K	1512 ± 2.7	0.797 ± 0.011
308.15 K	–	0.719 ± 0.01
313.15 K	1528 ± 2.8	0.653 ± 0.009
318.15 K	1535.2 ± 2.8	0.597 ± 0.008
